Assay [1] has as its system NSCLC patients. The assay can be described thus: M11-089 clinical trial: survival by LSP status or stemness score, C/P+veliparib vs C/P. The assay is classed as in vivo, human. As to conditions: for median overall survival in LSP- and LSP+ patients / survival (restricted mean survival time, hazard ratio) as a function of LSP status: M11-089; for median overall survival in LSP- and LSP+ patients: C/P+veliparib vs C/P alone, FIG. 2; for survival (restricted mean survival time, hazard ratio) as a function of LSP status: C/P+veliparib vs carboplatin/paclitaxel (C/P), LSP+ vs LSP- patients, FIG. 1 right; for survival in relation to stemness score (mRNAsi): M11-089 samples, stemness score >=0.5 vs <0.5, FIGS. 4 and 5. The source says: (§1) Time to death (overall survival, OS) for a given subject was defined as the number of days from the date that the subject was randomized to the date of the subject's death. All events of death were included, regardless of whether the event occurred while the subject was still taking veliparib/placebo or had previously discontinued veliparib/placebo.
(§2) Tumor samples for study were from biopsies taken prior to entry onto veliparib clinical trials M10-898 and M11-089. Tumor DNA/RNA was obtained by macrodissecting tumor area (>50% tumor content) from formalin-fixed, paraffin-embedded tumor slides. RNA and DNA was isolated using AllPrep kit (Qiagen).
RNAseq RPKM data of 52 LSP genes of Table 1 were obtained from sequenced samples of M10-898 clinical trial (https://clinicaltrials.gov/ct2/show/NCT01560104), purchased tissues and M11-089 (https://clinicaltrials.gov/ct2/show/NCT02106546). The RPKM data was log transformed and normalized in order to adjust for batch effects before entering the analyses. Unsupervised Clustering was performed on 52 LSP genes from M10-898 and purchased tissues to form 3 clusters of subtypes (AD (Adenocarcinoma), NE (Neuroendocrine), SQ (Squamous)), according to the consistency of known histology defined biologically distinct subtypes. The 52 LSP genes from M10-898 and purchased tissues together with the AD vs. nonAD labelling from unsupervised clustering is served as the training data. A shrunken centroid classifier is built based on the training data. The final classifier takes normalized RPKM data of 52 LSP genes as input, and outputs the probability of being nonAD subtype (prob (AD)=1-prob (nonAD)) for each RNAseq sample from M11-089. The subtype calls (nonAD vs. AD) is based on the probability strength. The subtype call will be labelled unknown If the absolute logarithm of odds (defined as Prob (nonAD)/Prob (AD)) is less than 0.15.
FIG. 1 represents the impact of treatment and patient outcome in M10-898 as a function of LSP status in M10-898 (left) and M11-089 (right). Patients were categorized as LSP− or LSP+ using RNA expression as depicted on the x-axis. Patients treated with carboplatin/paclitaxel (C/P) are listed in dotted lines, patients treated with C/P+veliparib (V) are listed in solid lines. The restricted mean survival time was calculated and is represented on the Y-axis.
Summary statistics for each comparison are shown below FIG. 2.
We examined the M11-089 samples to relate the stemness index to survival with Veliparib. In general, an index ranging from 0 to 1 is created for each tumor sample. Tumor cells closer to 1 are more similar to stem cells and more aggressive than tumor cells closer to 0.
We derived the stemness score from our samples based on stemness Index Derived using OCLR (mRNAsi) (T. M. Matta, et al., Cell, 2018, 173(2): 338-354), and methodology and code reference is based on the public available information (http://tcgabiolinks.fmrp.usp.br/PanCanStem/mRNAsi.html). The log gene expression for m11-089 is the batch effect corrected combined batch 1,2,3,4 data.

Assay [2] deals with NSCLC patients. The assay can be described thus: M10-898 clinical trial: survival by LSP status, C/P+veliparib vs C/P. It is filed as in vivo, human. Particulars: C/P+veliparib vs carboplatin/paclitaxel (C/P), FIG. 1 left.
Excerpt: as §1, §2
RNAseq RPKM data of 52 LSP genes of Table 1 were obtained from sequenced samples of M10-898 clinical trial (https://clinicaltrials.gov/ct2/show/NCT01560104), purchased tissues and M11-089 (https://clinicaltrials.gov/ct2/show/NCT02106546). The RPKM data was log transformed and normalized in order to adjust for batch effects before entering the analyses. […]
FIG. 1 represents the impact of treatment and patient outcome in M10-898 as a function of LSP status in M10-898 (left) and M11-089 (right). […] The restricted mean survival time was calculated and is represented on the Y-axis.

Structures are written as SMILES. “Also recorded” adds a separate entry of the source.

For the molecule `C[C@]1(c2nc3c(C(N)=O)cccc3[nH]2)CCCN1` [Veliparib, veliparib], the “median overall survival in LSP- and LSP+ patients” value is given as “statistically significant survival advantage only in the LSP+ population” in assay [1] and “increased Overall Survival (OS) observed in LSP positive NSCLC patients” in assay [1] (listed as veliparib). In addition, the “survival (restricted mean survival time, hazard ratio) as a function of LSP status” value in assay [1] is reported as “statistically significant survival advantage only in the LSP+ population”; in assay [1] (listed as veliparib) it was “benefit observed in signature subgroup”; in assay [2], “statistically significant survival advantage only in the LSP+ population”; in assay [2] (listed as veliparib), “benefit observed in signature subgroup”. The figures for the “survival in relation to stemness score (mRNAsi)” value in assay [1] and in assay [1] (listed as veliparib) were “better survival” and “better survival; also recorded: provides a benefit to subgroup of patients”, respectively.

The values above are taken from patent US20200129482A1, “TREATMENT OF NON-SMALL CELL LUNG CANCER” (AbbVie Inc., priority 2017, published 2020).
